# Where “and” joins values, the source holds several entries; their conditions need not be identical. Equal values may be shown once. Where a name gives a salt, the structure may show the parent alone.
# Target: Integrin alpha-IIb/beta-3 (Homo sapiens, UniProt P08514+P05106)
# Experiment: In vitro inhibition of ADP-induced platelet aggregation in human platelet rich plasma (hPRP)
# Chain of Integrin alpha-IIb/beta-3 (P05106 27-788 limits assumed): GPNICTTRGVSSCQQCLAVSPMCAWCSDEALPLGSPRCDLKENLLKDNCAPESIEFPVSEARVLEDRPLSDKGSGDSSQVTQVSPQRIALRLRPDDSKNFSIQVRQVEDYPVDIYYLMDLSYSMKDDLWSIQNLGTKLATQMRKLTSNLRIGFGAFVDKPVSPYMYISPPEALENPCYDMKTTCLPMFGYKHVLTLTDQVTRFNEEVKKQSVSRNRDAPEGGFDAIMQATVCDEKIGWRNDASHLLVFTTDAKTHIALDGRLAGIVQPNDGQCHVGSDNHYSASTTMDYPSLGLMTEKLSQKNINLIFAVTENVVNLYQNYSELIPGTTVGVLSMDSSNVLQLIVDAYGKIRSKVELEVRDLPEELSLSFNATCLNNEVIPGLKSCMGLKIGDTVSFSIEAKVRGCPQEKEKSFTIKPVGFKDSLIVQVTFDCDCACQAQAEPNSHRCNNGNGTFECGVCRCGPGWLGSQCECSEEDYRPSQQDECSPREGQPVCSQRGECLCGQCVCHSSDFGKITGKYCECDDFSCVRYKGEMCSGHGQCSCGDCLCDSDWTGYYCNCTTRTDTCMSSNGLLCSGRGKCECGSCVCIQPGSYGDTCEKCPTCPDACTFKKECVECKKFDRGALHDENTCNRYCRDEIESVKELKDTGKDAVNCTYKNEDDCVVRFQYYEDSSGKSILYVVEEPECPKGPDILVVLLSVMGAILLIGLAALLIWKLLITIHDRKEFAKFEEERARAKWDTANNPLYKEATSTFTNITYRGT
# Chain of Integrin alpha-IIb/beta-3 (P08514 32-887 limits assumed): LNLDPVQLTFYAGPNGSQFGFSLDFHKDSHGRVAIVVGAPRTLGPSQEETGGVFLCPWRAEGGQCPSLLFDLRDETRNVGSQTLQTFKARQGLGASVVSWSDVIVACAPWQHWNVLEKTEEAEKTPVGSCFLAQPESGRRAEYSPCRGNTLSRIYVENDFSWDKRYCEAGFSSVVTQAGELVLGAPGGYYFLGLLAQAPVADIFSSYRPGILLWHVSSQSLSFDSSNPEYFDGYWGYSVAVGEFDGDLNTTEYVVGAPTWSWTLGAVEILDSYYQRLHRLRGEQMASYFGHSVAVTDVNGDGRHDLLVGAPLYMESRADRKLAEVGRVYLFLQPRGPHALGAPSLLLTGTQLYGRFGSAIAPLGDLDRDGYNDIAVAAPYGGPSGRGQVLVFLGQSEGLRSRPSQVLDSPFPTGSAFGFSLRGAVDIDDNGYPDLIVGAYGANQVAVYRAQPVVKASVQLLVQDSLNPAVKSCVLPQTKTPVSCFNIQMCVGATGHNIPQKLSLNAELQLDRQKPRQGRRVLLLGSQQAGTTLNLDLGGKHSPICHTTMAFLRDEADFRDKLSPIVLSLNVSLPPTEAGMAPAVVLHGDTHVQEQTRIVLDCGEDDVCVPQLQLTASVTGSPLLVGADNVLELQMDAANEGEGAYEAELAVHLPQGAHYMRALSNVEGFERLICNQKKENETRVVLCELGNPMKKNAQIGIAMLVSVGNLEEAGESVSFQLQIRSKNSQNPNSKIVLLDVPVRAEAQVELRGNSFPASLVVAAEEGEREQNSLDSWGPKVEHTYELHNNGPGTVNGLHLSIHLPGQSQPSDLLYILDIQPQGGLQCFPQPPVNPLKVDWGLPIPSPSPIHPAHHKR
# Chain of Integrin alpha-IIb/beta-3 (P08514 891-1039 limits assumed): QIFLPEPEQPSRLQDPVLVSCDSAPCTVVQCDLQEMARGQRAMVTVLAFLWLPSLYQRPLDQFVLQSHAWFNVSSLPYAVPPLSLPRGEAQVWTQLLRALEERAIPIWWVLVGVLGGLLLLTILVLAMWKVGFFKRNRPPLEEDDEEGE
row,Structure (SMILES),IC50
1,"CCCCOC(=O)N[C@@H](CNC(=O)CC1CC(CCCC2CCNCC2)=NO1)C(=O)O (stereo partly drawn) [(S)-2-Butoxycarbonylamino-3-{2-[3-(3-piperidin-4-yl-propyl)-4,5-dihydro-isoxazol-5-yl]-acetylamino}-propionic acid; TFA]",180 nM
2,"CCCCOC(=O)N[C@@H](CNC(=O)CC1CC(c2ccc(C(=N)N)cc2F)=NO1)C(=O)O (stereo partly drawn) [(S)-2-Butoxycarbonylamino-3-{2-[3-(4-carbamimidoyl-2-fluoro-phenyl)-4,5-dihydro-isoxazol-5-yl]-acetylamino}-propionic acid]",73 nM
3,"CCCCOC(=O)N[C@@H](CNC(=O)CC1CC(c2ccc(C(=N)N)cc2)=NO1)C(=O)OC (stereo partly drawn) [(S)-2-Butoxycarbonylamino-3-{2-[3-(4-carbamimidoyl-phenyl)-4,5-dihydro-isoxazol-5-yl]-acetylamino}-propionic acid methyl ester; hydrochloride]",30 nM
4,"CCCCOC(=O)N[C@@H](CNC(=O)CC1CC(c2ccc(C(=N)N)cc2)=NO1)C(=O)O (stereo partly drawn) [(S)-2-Butoxycarbonylamino-3-{2-[3-(4-carbamimidoyl-phenyl)-4,5-dihydro-isoxazol-5-yl]-acetylamino}-propionic acid; TFA]",75 nM and 42 nM
5,"CCCCOC(=O)N[C@@H](CNC(=O)CC1CC(c2ccc(N=C(N)N)cc2)=NO1)C(=O)O (stereo partly drawn) [(S)-2-Butoxycarbonylamino-3-{2-[3-(4-guanidino-phenyl)-4,5-dihydro-isoxazol-5-yl]-acetylamino}-propionic acid]",88 nM
6,"N=C(N)c1ccc(C2=NOC(CC(=O)NC[C@H](NC(=O)c3ccc(-c4ccccc4)cc3)C(=O)O)C2)cc1 (stereo partly drawn) [(S)-2-[(Biphenyl-4-carbonyl)-amino]-3-{2-[3-(4-carbamimidoyl-phenyl)-4,5-dihydro-isoxazol-5-yl]-acetylamino}-propionic acid; TFA]",67 nM
7,"N=C(N)c1ccc(C2=NOC(CC(=O)NC[C@H](NC(=O)OCc3ccccc3Cl)C(=O)O)C2)cc1 (stereo partly drawn) [(S)-3-{2-[3-(4-Carbamimidoyl-phenyl)-4,5-dihydro-isoxazol-5-yl]-acetylamino}-2-(2-chloro-benzyloxycarbonylamino)-propionic acid; TFA]",32 nM
8,"N=C(N)c1ccc(C2=NOC(CC(=O)NC[C@H](NC(=O)OCCC3CCCC3)C(=O)O)C2)cc1 (stereo partly drawn) [(S)-3-{2-[3-(4-Carbamimidoyl-phenyl)-4,5-dihydro-isoxazol-5-yl]-acetylamino}-2-(2-cyclopentyl-ethoxycarbonylamino)-propionic acid; TFA]",32 nM
9,"N=C(N)c1ccc(C2=NOC(CC(=O)NC[C@H](NC(=O)OCCC3CC3)C(=O)O)C2)cc1 (stereo partly drawn) [(S)-3-{2-[3-(4-Carbamimidoyl-phenyl)-4,5-dihydro-isoxazol-5-yl]-acetylamino}-2-(2-cyclopropyl-ethoxycarbonylamino)-propionic acid; TFA]",36 nM
10,"N=C(N)c1ccc(C2=NOC(CC(=O)NC[C@H](NC(=O)OCCC(F)(F)F)C(=O)O)C2)cc1 (stereo partly drawn) [(S)-3-{2-[3-(4-Carbamimidoyl-phenyl)-4,5-dihydro-isoxazol-5-yl]-acetylamino}-2-(3,3,3-trifluoro-propoxycarbonylamino)-propionic acid; TFA]",31 nM
11,"N=C(N)c1ccc(C2=NOC(CC(=O)NC[C@H](NC(=O)CCc3ccccc3)C(=O)O)C2)cc1 (stereo partly drawn) [(S)-3-{2-[3-(4-Carbamimidoyl-phenyl)-4,5-dihydro-isoxazol-5-yl]-acetylamino}-2-(3-phenyl-propionylamino)-propionic acid; TFA]",31 nM
12,"COC(=O)[C@H](CNC(=O)CC1CC(c2ccc(C(=N)N)cc2)=NO1)NC(=O)Nc1ccccc1 (stereo partly drawn) [(S)-3-{2-[3-(4-Carbamimidoyl-phenyl)-4,5-dihydro-isoxazol-5-yl]-acetylamino}-2-(3-phenyl-ureido)-propionic acid methyl ester; TFA]",69 nM
13,"CCc1ccc(C(=O)N[C@@H](CNC(=O)CC2CC(c3ccc(C(=N)N)cc3)=NO2)C(=O)O)cc1 (stereo partly drawn) [(S)-3-{2-[3-(4-Carbamimidoyl-phenyl)-4,5-dihydro-isoxazol-5-yl]-acetylamino}-2-(4-ethyl-benzoylamino)-propionic acid; TFA]",49 nM
14,"N=C(N)c1ccc(C2=NOC(CC(=O)NC[C@H](NC(=O)c3ccc4ccccc4c3)C(=O)O)C2)cc1 (stereo partly drawn) [(S)-3-{2-[3-(4-Carbamimidoyl-phenyl)-4,5-dihydro-isoxazol-5-yl]-acetylamino}-2-[(naphthalene-2-carbonyl)-amino]-propionic acid; TFA]",61 nM
15,"CCCCCCOC(=O)N[C@@H](CNC(=O)CC1CC(c2ccc(C(=N)N)cc2)=NO1)C(=O)O (stereo partly drawn) [(S)-3-{2-[3-(4-Carbamimidoyl-phenyl)-4,5-dihydro-isoxazol-5-yl]-acetylamino}-2-hexyloxycarbonylamino-propionic acid; TFA]",41 nM
16,"CC(C)COC(=O)N[C@@H](CNC(=O)CC1CC(c2ccc(C(=N)N)cc2)=NO1)C(=O)O (stereo partly drawn) [(S)-3-{2-[3-(4-Carbamimidoyl-phenyl)-4,5-dihydro-isoxazol-5-yl]-acetylamino}-2-isobutoxycarbonylamino-propionic acid; TFA]",47 nM
17,"CC(C)OC(=O)N[C@@H](CNC(=O)CC1CC(c2ccc(C(=N)N)cc2)=NO1)C(=O)O (stereo partly drawn) [(S)-3-{2-[3-(4-Carbamimidoyl-phenyl)-4,5-dihydro-isoxazol-5-yl]-acetylamino}-2-isopropoxycarbonylamino-propionic acid; TFA]",130 nM
18,"COC(=O)N[C@@H](CNC(=O)CC1CC(c2ccc(C(=N)N)cc2)=NO1)C(=O)O (stereo partly drawn) [(S)-3-{2-[3-(4-Carbamimidoyl-phenyl)-4,5-dihydro-isoxazol-5-yl]-acetylamino}-2-methoxycarbonylamino-propionic acid; TFA]",65 nM
19,"N=C(N)c1ccc(C2=NOC(CC(=O)NC[C@H](NC(=O)OCCc3ccccc3)C(=O)O)C2)cc1 (stereo partly drawn) [(S)-3-{2-[3-(4-Carbamimidoyl-phenyl)-4,5-dihydro-isoxazol-5-yl]-acetylamino}-2-phenethyloxycarbonylamino-propionic acid; TFA]",55 nM
20,"N=C(N)c1ccc(C2=NOC(CC(=O)N[C@@H](CC(=O)O)C(=O)N3CCSCC3)C2)cc1 (stereo partly drawn) [(S)-3-{2-[3-(4-Carbamimidoyl-phenyl)-4,5-dihydro-isoxazol-5-yl]-acetylamino}-4-oxo-4-thiomorpholin-4-yl-butyric acid; TFA]",360 nM
21,"N=C(N)c1ccc(C2=NOC(CC(=O)N[C@H](CC(=O)O)Cc3ccccc3)C2)cc1 (stereo partly drawn) [(S)-3-{2-[3-(4-Carbamimidoyl-phenyl)-4,5-dihydro-isoxazol-5-yl]-acetylamino}-4-phenyl-butyric acid; hydrochloride]",1400 nM
22,"N=C(N)c1ccc(C2=NOC(CC(=O)N[C@@H](CC(=O)O)C(=O)NCCc3ccccc3)C2)cc1 (stereo partly drawn) [(S)-3-{2-[3-(4-Carbamimidoyl-phenyl)-4,5-dihydro-isoxazol-5-yl]-acetylamino}-N-phenethyl-succinamic acid; TFA]",68 nM
23,"N=C(N)c1ccc(C2=NO[C@@H](CC(=O)N[C@@H](CC(=O)O)c3cccnc3)C2)cc1 [(S)-3-{2-[(R)-3-(4-Carbamimidoyl-phenyl)-4,5-dihydro-isoxazol-5-yl]-acetylamino}-3-pyridin-3-yl-propionic acid; TFA]",170 nM
24,"N=C(N)c1ccc(C2=NOC(CC(=O)N[C@@H](CC(=O)O)C(=O)N3CCC4CCC(CC4)C3)C2)cc1 (stereo partly drawn) [(S)-4-(3-Aza-bicyclo[4.2.2]dec-3-yl)-3-{2-[3-(4-carbamimidoyl-phenyl)-4,5-dihydro-isoxazol-5-yl]-acetylamino}-4-oxo-butyric acid; TFA]",210 nM
